Source: patent US8754075B2, “1,3-oxazines as BACE1 and/or BACE2 inhibitors” (Hoffmann-La Roche Inc., priority 2011, dated 2014)

Assays:
BACE2 = BACE2 (Rattus norvegicus (Rat), UniProt Q6IE75); assay: Assay for BACE inhibition by measuring cellular TMEM27 cleavage; assay type: cell-based; settings: INS-TMEM27 (INS1e rat cell line, inducible hTMEM27); shed TMEM27 by ELISA
Excerpt: Assay for BACE Inhibition by Measuring Cellular TMEM27 Cleavage:
The assay uses the principle of inhibition of human TMEM27 cleavage by endogenous cellular BACE2 in the Ins1e rat cell line and shedding from the cell surface into the culture medium, followed by detection in an ELISA assay Inhibition of BACE2 prevents the cleavage and shedding in a dose-dependent manner.
The stable cell line “INS-TMEM27” represents an INS1e-derived cell line with inducible expression (using the TetOn system) of full-length hTMEM27 in a doxycycline-dependent manner. The cells are cultured throughout the experiment in RPMI1640+Glutamax (Invitrogen) Penicillin/Streptomycin, 10% Fetal bovine serum, […], […], 100 micrograms/ml G418 and 100 microgram/ml hygromycin and are grown inadherent culture at 37° C. in a standard CO2 cell culture incubator.
INS-TMEM27 cells are seeded in 96-well plates. After 2 days in culture, BACE2 inhibitor is added in a range of concentrations as required by the assay and after a further two hours, doxycycline is added to a final concentration of 500 ng/ml. The cells are incubated for a further 46 hours and the supernatant harvested for detection of shed TMEM27.
An ELISA assay (using a pair of mouse anti-human-TMEM27 antibodies, raised against the extracellular domain of TMEM27) is used for detection of TMEM27 in the culture medium. An EC50 for BACE2 inhibition is calculated using the ELISA readout for each inhibitor concentration with standard curve-fitting software such as XLFit for the Excel spreadsheet program.

BACE1 = BACE1 (Homo sapiens (Human), UniProt P56817); assay: Cellular Aβ-lowering assay; assay type: cell-based; settings: HEK293 cells stably expressing human APP wt (APP695); Aβ40 in supernatant by ELISA after 18-20 hrs
Chain of BACE1 (P56817 46-501): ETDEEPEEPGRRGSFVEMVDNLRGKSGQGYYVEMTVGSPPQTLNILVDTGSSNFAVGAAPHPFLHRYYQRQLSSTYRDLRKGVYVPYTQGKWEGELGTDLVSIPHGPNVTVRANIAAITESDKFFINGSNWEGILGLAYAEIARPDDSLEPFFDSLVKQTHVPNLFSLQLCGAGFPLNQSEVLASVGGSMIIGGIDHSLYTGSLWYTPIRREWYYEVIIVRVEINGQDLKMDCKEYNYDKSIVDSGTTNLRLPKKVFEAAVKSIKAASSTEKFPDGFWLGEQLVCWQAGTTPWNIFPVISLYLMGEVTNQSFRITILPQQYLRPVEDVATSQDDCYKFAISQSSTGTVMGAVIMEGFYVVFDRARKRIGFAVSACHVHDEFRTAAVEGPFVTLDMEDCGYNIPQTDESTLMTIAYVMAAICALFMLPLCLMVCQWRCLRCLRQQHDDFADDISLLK
Protocol: Cellular Aβ-Lowering Assay: Human HEK293 cells which are stably transfected with a vector expressing a cDNA of the human APP wt gene (APP695) were used to assess the potency of the compounds in a cellular assay. The cells were seeded in 96-well microtiter plates in cell culture medium (Iscove, plus 10% (v/v) fetal bovine serum, glutamine, penicillin/streptomycin) to about 80% confluence and the compounds were added at a 10× concentration in 1/10 volume of medium without FCS containing 8% DMSO (final concentration of DMSO was kept at 0.8% v/v). After 18-20 hrs incubation at 37° C. and 5% CO2 in a humidified incubator the culture supernatant was harvested for the determination of Aβ40 concentrations. […] After blocking of non-specific binding sites with e.g. 1% BSA and washing, the culture supernatants were added in suitable dilutions together with a horseradish peroxidase-coupled Aβ detection antibody (e.g., antibody 4G8, Senetek, Maryland Heights, Mo.) and incubated for 5 to 7 hrs. Subsequently the wells of the microtiter plate were washed extensively with Tris-buffered saline containing 0.05% Tween 20 and the assay was developed with tetramethylbenzidine/H2O2 in citric acid buffer. After stopping the reaction with one volume […] the reaction was measured in an ELISA reader at 450 nm wavelength. The concentrations of Aβ in the culture supernatants were calculated from a standard curve obtained with known amounts of pure Aβ peptide.

Chain of BACE2 (Q6IE75 63-514): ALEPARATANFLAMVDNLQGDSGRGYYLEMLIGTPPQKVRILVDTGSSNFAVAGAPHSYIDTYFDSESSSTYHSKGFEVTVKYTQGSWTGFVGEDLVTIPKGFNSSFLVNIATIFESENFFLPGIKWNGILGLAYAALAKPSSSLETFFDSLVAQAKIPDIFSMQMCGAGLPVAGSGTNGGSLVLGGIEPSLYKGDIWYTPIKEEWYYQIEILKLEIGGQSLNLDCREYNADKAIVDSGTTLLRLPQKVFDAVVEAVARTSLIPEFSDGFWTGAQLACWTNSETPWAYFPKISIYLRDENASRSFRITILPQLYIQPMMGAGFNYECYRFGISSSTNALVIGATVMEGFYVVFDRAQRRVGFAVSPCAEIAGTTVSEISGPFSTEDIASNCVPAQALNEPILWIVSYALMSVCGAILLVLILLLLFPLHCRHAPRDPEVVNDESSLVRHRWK

Structure (SMILES) | IC50 (BACE2) [nM] | IC50 (BACE1) [nM]
C[C@]1(c2cc(NC(=O)c3ncc(C#N)cc3Cl)ccc2F)N=C(N)OC[C@H]1F [Example 35, 3-Chloro-5-cyano-pyridine-2-carboxylic acid [3-((4R,5S)-2-amino-5-fluoro-4-methyl-5,6-dihydro-4H-[1,3]oxazin-4-yl)-4-fluoro-phenyl]-amide] | 511 | 82
C[C@]1(c2cc(NC(=O)c3ccc(F)cn3)ccc2F)N=C(N)OC[C@@H]1OCC(F)(F)F [Example 46, 5-Fluoro-pyridine-2-carboxylic acid {3-[(4R,5R)-2-amino-4-methyl-5-(2,2,2-trifluoro-ethoxy)-5,6-dihydro-4H-[1,3]oxazin-4-yl]-4-fluoro-phenyl}-amide] | 65 | 2
C[C@]1(c2cc(NC(=O)c3ncc(Cl)cc3Cl)ccc2F)N=C(N)OC[C@@H]1OCC(F)(F)F [Example 48, 3,5-Dichloro-pyridine-2-carboxylic acid {3-[(4R,5R)-2-amino-4-methyl-5-(2,2,2-trifluoro-ethoxy)-5,6-dihydro-4H-[1,3]oxazin-4-yl]-4-fluoro-phenyl}-amide] | 67 | 3
C[C@]1(F)COC(N)=N[C@]1(C)c1cc(NC(=O)c2nn(C(F)F)cc2Cl)ccc1F [Example 40, 4-Chloro-1-difluoromethyl-1H-pyrazole-3-carboxylic acid [3-((4R,5R)-2-amino-5-fluoro-4,5-dimethyl-5,6-dihydro-4H-[1,3]oxazin-4-yl)-4-fluoro-phenyl]amide] | 31 | 2
C[C@]1(c2cc(NC(=O)c3cnc(OCC(F)F)cn3)ccc2F)N=C(N)OC[C@@H]1F [Example 19, 5-(2,2-Difluoro-ethoxy)-pyrazine-2-carboxylic acid [3-((4R,5R)-2-amino-5-fluoro-4-methyl-5,6-dihydro-4H-[1,3]oxazin-4-yl)-4-fluoro-phenyl]-amide] | – | 8
C[C@]1(c2cc(NC(=O)c3ccc(Cl)cn3)ccc2F)N=C(N)OC[C@@H]1F [Example 1, 5-Chloro-pyridine-2-carboxylic acid [3-((4R,5R)-2-amino-5-fluoro-4-methyl-5,6-dihydro-4H-[1,3]oxazin-4-yl)-4-fluoro-phenyl]-amide] | 1 | 0.4
C[C@]1(c2cc(NC(=O)c3ccc(C4CC4)cn3)ccc2F)N=C(N)OC[C@@H]1F [Example 22, 5-Cyclopropyl-pyridine-2-carboxylic acid [3-((4R,5R)-2-amino-5-fluoro-4-methyl-5,6-dihydro-4H-[1,3]oxazin-4-yl)-4-fluoro-phenyl]-amide] | 124 | 14
C[C@]1(c2cc(NC(=O)c3n[nH]cc3Cl)ccc2F)N=C(N)OC[C@@H]1F [Example 28, 4-Chloro-1H-pyrazole-3-carboxylic acid [3-((4R,5R)-2-amino-5-fluoro-4-methyl-5,6-dihydro-4H-[1,3]oxazin-4-yl)-4-fluoro-phenyl]-amide] | 35 | 130
C[C@]1(c2cc(NC(=O)c3ccc(Cl)cn3)ccc2F)N=C(N)OC[C@H]1F [Example 34, 5-Chloro-pyridine-2-carboxylic acid [3-((4R,5S)-2-amino-5-fluoro-4-methyl-5,6-dihydro-4H-[1,3]oxazin-4-yl)-4-fluoro-phenyl]-amide] | – | 42
C[C@]1(c2cc(NC(=O)c3ccc(OCC(F)F)cn3)ccc2F)N=C(N)OC[C@@H]1F [Example 21, 5-(2,2-Difluoro-ethoxy)-pyridine-2-carboxylic acid [3-((4R,5R)-2-amino-5-fluoro-4-methyl-5,6-dihydro-4H-[1,3]oxazin-4-yl)-4-fluoro-phenyl]-amide] | – | 13
Cc1cc(C(=O)Nc2ccc(F)c([C@@]3(C)N=C(N)OC[C@@H]3F)c2)nn1C [Example 30, 1,5-Dimethyl-1H-pyrazole-3-carboxylic acid [3-((4R,5R)-2-amino-5-fluoro-4-methyl-5,6-dihydro-4H-[1,3]oxazin-4-yl)-4-fluoro-phenyl]-amide] | – | 760
C[C@]1(c2cc(NC(=O)c3ccc(OCC(F)(F)C(F)(F)F)cn3)ccc2F)N=C(N)OC[C@@H]1F [Example 25, 5-(2,2,3,3,3-Pentafluoro-propoxy)-pyridine-2-carboxylic acid [3-((4R,5R)-2-amino-5-fluoro-4-methyl-5,6-dihydro-4H-[1,3]oxazin-4-yl)-4-fluoro-phenyl]-amide] | – | 52
C[C@]1(c2cc(NC(=O)c3cncs3)ccc2F)N=C(N)OC[C@@H]1F [Example 29, Thiazole-5-carboxylic acid [3-((4R,5R)-2-amino-5-fluoro-4-methyl-5,6-dihydro-4H-[1,3]oxazin-4-yl)-4-fluoro-phenyl]-amide] | – | 250
C[C@]1(c2cc(NC(=O)c3ccc(OCC(F)(F)C(F)F)cn3)ccc2F)N=C(N)OC[C@@H]1F [Example 24, 5-(2,2,3,3-Tetrafluoro-propoxy)-pyridine-2-carboxylic acid [3-((4R,5R)-2-amino-5-fluoro-4-methyl-5,6-dihydro-4H-[1,3]oxazin-4-yl)-4-fluoro-phenyl]-amide] | – | 17
C[C@]1(c2cc(NC(=O)c3ccc(OCC4CC4)cn3)ccc2F)N=C(N)OC[C@@H]1F [Example 23, 5-Cyclopropylmethoxy-pyridine-2-carboxylic acid [3-((4R,5R)-2-amino-5-fluoro-4-methyl-5,6-dihydro-4H-[1,3]oxazin-4-yl)-4-fluoro-phenyl]-amide] | – | 15
C[C@]1(c2cc(NC(=O)C3CC3)ccc2F)N=C(N)OC[C@@H]1F [Example 32, Cyclopropanecarboxylic acid [3-((4R,5R)-2-amino-5-fluoro-4-methyl-5,6-dihydro-4H-[1,3]oxazin-4-yl)-4-fluoro-phenyl]-amide] | – | 730
C[C@]1(c2cc(NC(=O)c3cnc(OCF)cn3)ccc2F)N=C(N)OC[C@@H]1F [Example 10, 5-Fluoromethoxy-pyrazine-2-carboxylic acid [3-((4R,5R)-2-amino-5-fluoro-4-methyl-5,6-dihydro-4H-[1,3]oxazin-4-yl)-4-fluoro-phenyl]-amide] | – | 24
C[C@]1(c2cc(NC(=O)C3(C#N)CC3)ccc2F)N=C(N)OC[C@@H]1F [Example 31, 1-Cyano-cyclopropanecarboxylic acid [3-((4R,5R)-2-amino-5-fluoro-4-methyl-5,6-dihydro-4H-[1,3]oxazin-4-yl)-4-fluoro-phenyl]-amide] | – | 75
C[C@]1(c2cc(NC(=O)c3ncc(C(F)(F)F)cc3F)ccc2F)N=C(N)OC[C@@H]1F [Example 12, 3-Fluoro-5-trifluoromethyl-pyridine-2-carboxylic acid [3-((4R,5R)-2-amino-5-fluoro-4-methyl-5,6-dihydro-4H-[1,3]oxazin-4-yl)-4-fluoro-phenyl]-amide] | – | 4
C[C@]1(c2cc(NC(=O)c3ccc(OCC(F)(F)F)cn3)ccc2F)N=C(N)OC[C@@H]1OCC(F)(F)F [Example 49, 5-(2,2,2-Trifluoro-ethoxy)-pyridine-2-carboxylic acid {3-[(4R,5R)-2-amino-4-methyl-5-(2,2,2-trifluoro-ethoxy)-5,6-dihydro-4H-[1,3]oxazin-4-yl]-4-fluoro-phenyl}-amide] | – | 21
CC#CCOc1cnc(C(=O)Nc2ccc(F)c([C@@]3(C)N=C(N)OC[C@]3(C)F)c2)cn1 [Example 50, 5-But-2-ynyloxy-pyrazine-2-carboxylic acid [3-((4R,5R)-2-amino-5-fluoro-4,5-dimethyl-5,6-dihydro-4H-[1,3]oxazin-4-yl)-4-fluoro-phenyl]-amide] | – | 0.1
C[C@]1(c2cc(NC(=O)c3ccc(OC(F)F)cn3)ccc2F)N=C(N)OC[C@@H]1F [Example 6, 5-Difluoromethoxy-pyridine-2-carboxylic acid [3-((4R,5R)-2-amino-5-fluoro-4-methyl-5,6-dihydro-4H-[1,3]oxazin-4-yl)-4-fluoro-phenyl]-amide] | – | 2
